Test results as given in ChEMBL document CHEMBL4145535, “Recent updates for designing CCR5 antagonists as anti-retroviral agents” (Eur J Med Chem, 2018).

Legend:
[1] = molecular target: T1, C-C chemokine receptor type 5 (Homo sapiens, UniProt P51681); assay: Antagonist activity at CCR5 (unknown origin) by HTS assay; type: functional
Target sequence in this assay (P51681 whole entry): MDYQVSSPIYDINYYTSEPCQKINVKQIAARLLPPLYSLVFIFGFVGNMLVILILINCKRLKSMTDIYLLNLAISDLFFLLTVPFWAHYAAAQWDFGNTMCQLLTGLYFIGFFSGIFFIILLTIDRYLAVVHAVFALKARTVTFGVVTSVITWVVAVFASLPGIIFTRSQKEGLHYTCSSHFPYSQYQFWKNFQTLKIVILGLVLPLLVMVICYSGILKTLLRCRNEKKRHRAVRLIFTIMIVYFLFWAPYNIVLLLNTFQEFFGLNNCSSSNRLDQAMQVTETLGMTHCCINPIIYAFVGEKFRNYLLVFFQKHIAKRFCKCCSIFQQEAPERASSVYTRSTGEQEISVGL

[2] = molecular target: T1, C-C chemokine receptor type 5; assay: Displacement of [125I]-RANTES from CCR5 in mouse NIH/3T3 cells after 1 hr
Target sequence in this assay (P51681 whole entry, looked up): as the sequence (P51681 whole entry) above

IC50 [2] [nM]	Structure (SMILES)	IC50 [1] [nM]
	C1NCC2CNCC12 (configuration not stated)	7
2.9	C=CCN(C(=O)OCc1ccc([N+](=O)[O-])cc1)C1CCN(C[C@H]2CN(C(=O)C3CCCC3)C[C@]2(O)c2ccccc2)CC1 [NIFEVIROC]	
